Assay results taken from patent publication US11919902B2, “Aryl-bipyridine amine derivatives as phosphatidylinositol phosphate kinase inhibitors” (HiberCell, Inc., priority 2017, dated 2024).

Legend:
GST tagged PIP4KtypeIIA = biological target: T1, GST tagged PIP4KtypeIIA (Homo sapiens, UniProt P48426); assay: ADP-glo kinase assay PIP4K 2A (PIP4KtypeIIA inhibition assay); type: biochemical; settings: Table 3; compounds listed under IC50 range headings; 10 uM ATP, 0.5 nM PIP4KIIA
T1 construct: made in house; host or cells: E. coli
T1 sequence (P48426 1-406): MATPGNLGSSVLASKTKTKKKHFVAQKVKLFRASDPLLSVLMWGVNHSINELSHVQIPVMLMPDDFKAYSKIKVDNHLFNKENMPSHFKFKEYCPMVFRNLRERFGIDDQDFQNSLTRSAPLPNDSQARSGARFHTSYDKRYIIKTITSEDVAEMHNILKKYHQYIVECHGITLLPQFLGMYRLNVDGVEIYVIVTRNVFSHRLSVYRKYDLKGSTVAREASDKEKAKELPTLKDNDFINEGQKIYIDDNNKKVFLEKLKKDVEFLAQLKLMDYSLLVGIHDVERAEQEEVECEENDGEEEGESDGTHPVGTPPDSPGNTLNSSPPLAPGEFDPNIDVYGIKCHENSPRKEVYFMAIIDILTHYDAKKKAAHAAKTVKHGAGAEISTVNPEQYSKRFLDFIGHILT
From the text: GST tagged PIP4KtypeIIA and B enzymes were overexpressed in E. Coli and purified to >80% homogeneity. Phosphatidyl inositol-5-phosphate (PI5P, Cat. #850152, Avanti Polar Lipids Inc.) was used as the lipid substrate and phosphatidyl ethanolamine (DOPE 18:1, Cat. #850725, Avanti Polar Lipids Inc.) was used as the carrier lipid for assays. Ultrapure ATP and GTP was purchased from Bellbrooke Labs. ADP Glo reagents were obtained from Promega. Transcreener FI reagent was obtained from Bellbrooke labs.
1. HEPES buffer mix: 200 mM HEPES pH 7.4, 50 mM MgCl2, 0.05% v/v triton×100
2. HNE buffer: 20 mM HEPES, pH 7.4, 100 mM NaCl, 0.5 mM EGTA
3. H:E buffer: 30 mM HEPES, pH 7.4, 1 mM EGTA
Enzyme preparation: GST-tagged PIP4KtypeIIA (5 uL, 1.43 mg/mL) was diluted (1:10) to 50 uL using HNE buffer. From the 1:10 diluted stock, a 6.4 uL aliquot was diluted further to 5 mL using HNE buffer to yield 5× enzyme stock (2.5 nM).
Lipid Preparation: In a 10 mL pyrex glass vial, lug of PI5P and lug of DOPE were suspended in 2.5 mL of HEPES buffer mix and 2.5 mL of H:E buffer. The contents were mixed and sonicated for 3 min to yield a translucent lipid stock.
Compound Preparation: Compounds were stored as 5 mM stocks in neat DMSO as room temperature in glass vials. 5 mM stocks were diluted to 2 mM and then serially diluted (3×) in neat DMSO in 96 well polypropylene plates. From the serially diluted stocks, 3 uL was delivered into 250 uL of 25% DMSO (in water) to generate 5× compound stocks. Typically, the highest compound conc. was 24 uM.
The assay volume was kept at 25 uL. To each well of the reaction plate, 10 uL of lipid stock (1:1 ratio PI5P:DOPE) was delivered. This was followed by the addition of 5 uL of compound in 25% DMSO. Then, to each well, 5 uL of 2.5 nM (5×) typeIIA enzyme was delivered. The contents were mixed well and incubated for 1 h at 27 C. After 1 h, reaction was initiated by adding 5 uL of 50 uM ATP and the contents were mixed well with a multi-channel pipetteman. The final concentration of the reagents are as follows: 50 mM HEPES, pH 7.3, 10 mM MgCl2, 20 mM NaCl, 0.01% v/v triton-X100, 5% DMSO, 10 uM ATP, 80 uM (2 ug) PI5P, 2 ug DOPE, and 0.5 nM PIP4KIIA. Typically, the highest conc. of compounds was 4.8 uM and the lowest conc. was 0.
After 1 hr, the reaction was quenched by adding 25 uL of ADP Glo reagent. The contents were incubated for 1 hr. Afterwards, 50 uL of kinase detection reagent was delivered. The contents were incubated for another hour. The luminescence was read using Molecular Devices Paradigm plate reader. […] The blanks were averaged and subtracted from all other wells. Using a calibration curve, RLU was converted to uM ADP (product). IC50 was calculated by plotting the residual activity (expressed as % No inhibitor control) vs. log [Inh. conc.]

GST tagged PIP4KtypeIIB = biological target: T2, GST tagged PIP4KtypeIIB (Homo sapiens, UniProt P78356); assay: Trans-FI P kinase assay PIP4K2B (PIP4KtypeIIB inhibition assay); type: biochemical; settings: Table 4; compounds listed under IC50 range headings; 100 uM GTP, 5 nM PIP4KIIB; read-out: Trans-FI P kinase assays: PIP4K2B IC50
T2 construct: made in house; host or cells: E. coli
T2 sequence (P78356 1-416): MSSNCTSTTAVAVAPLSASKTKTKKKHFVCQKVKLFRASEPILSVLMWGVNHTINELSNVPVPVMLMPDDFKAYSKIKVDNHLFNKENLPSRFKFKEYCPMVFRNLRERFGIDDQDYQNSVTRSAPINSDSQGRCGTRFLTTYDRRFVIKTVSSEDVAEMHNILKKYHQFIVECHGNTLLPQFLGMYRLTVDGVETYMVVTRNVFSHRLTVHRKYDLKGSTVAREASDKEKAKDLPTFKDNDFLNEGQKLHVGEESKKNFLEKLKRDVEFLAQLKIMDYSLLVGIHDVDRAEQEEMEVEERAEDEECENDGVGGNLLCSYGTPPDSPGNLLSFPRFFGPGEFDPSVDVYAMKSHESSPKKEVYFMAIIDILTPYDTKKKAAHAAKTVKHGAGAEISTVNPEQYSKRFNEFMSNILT
Summary of the method: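 Purified GST-PIP4KIIB (5 nM final), 1 h preincubation with compound at 27 C, then 2 h reaction with 100 uM GTP and 80 uM PI5P plus DOPE carrier lipid in pH 7.3 HEPES/MgCl2/Triton buffer with 5% DMSO. GDP read by Transcreener FI fluorescence against a calibration curve; IC50 from % no-inhibitor activity vs log concentration.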

| SMILES | IC50 (GST tagged PIP4KtypeIIA) | IC50 (GST tagged PIP4KtypeIIB) |
| --- | --- | --- |
| O=C(c1cc2c(-c3cncc(-c4ccc(N5CCCC5=O)cc4)c3)ccnc2[nH]1)N1CCCC1 [Example 235, 1-(4-(5-(2-(pyrrolidine-1-carbonyl)-1H-pyrrolo[2,3-b]pyridin-4-yl)pyridin-3-yl)phenyl)pyrrolidin-2-one] | 100 to 1000 nM | 100 to 1000 nM |
| O=C(NCCc1ccccc1)c1cc2c(-c3cncc(-c4ccc(N5CCCC5=O)cc4)c3)ccnc2[nH]1 [Example 236, 4-(5-(4-(2-oxopyrrolidin-1-yl)phenyl)pyridin-3-yl)-N-phenethyl-1H-pyrrolo[2,3-b]pyridine-2-carboxamide] | 100 to 1000 nM | 10 to 100 nM |
| O=C(NCCc1cccnc1)c1cc2c(-c3cncc(-c4ccc(N5CCCC5=O)cc4)c3)ccnc2[nH]1 [Example 237, 4-(5-(4-(2-oxopyrrolidin-1-yl)phenyl)pyridin-3-yl)-N-(2-(pyridin-3-yl)ethyl)-1H-pyrrolo[2,3-b]pyridine-2-carboxamide] | 100 to 1000 nM | 10 to 100 nM |
| O=C(NCc1cccnc1)c1cc2c(-c3cncc(-c4ccc(N5CCCC5=O)cc4)c3)ccnc2[nH]1 [Example 238, 4-(5-(4-(2-oxopyrrolidin-1-yl)phenyl)pyridin-3-yl)-N-(pyridin-3-ylmethyl)-1H-pyrrolo[2,3-b]pyridine-2-carboxamide] | 100 to 1000 nM | 10 to 100 nM |
| O=C(NCc1ccccn1)c1cc2c(-c3cncc(-c4ccc(N5CCCC5=O)cc4)c3)ccnc2[nH]1 [Example 239, 4-(5-(4-(2-oxopyrrolidin-1-yl)phenyl)pyridin-3-yl)-N-(pyridin-2-ylmethyl)-1H-pyrrolo[2,3-b]pyridine-2-carboxamide] | 100 to 1000 nM | 10 to 100 nM |
| CNC(=O)c1cc2c(-c3cncc(-c4ccc(N5CCCC5=O)cc4)c3)ccnc2[nH]1 [Example 240, N-methyl-4-(5-(4-(2-oxopyrrolidin-1-yl)phenyl)pyridin-3-yl)-1H-pyrrolo[2,3-b]pyridine-2-carboxamide] | 100 to 1000 nM | 10 to 100 nM |
| O=C(NC1CC1)c1cc2c(-c3cncc(-c4ccc(N5CCCC5=O)cc4)c3)ccnc2[nH]1 [Example 242, N-cyclopropyl-4-(5-(4-(2-oxopyrrolidin-1-yl)phenyl)pyridin-3-yl)-1H-pyrrolo[2,3-b]pyridine-2-carboxamide] | 100 to 1000 nM | 10 to 100 nM |
| O=C(NCCc1ncc[nH]1)c1cc2c(-c3cncc(-c4ccc(N5CCCC5)cc4)c3)ccnc2[nH]1 [Example 244, N-(2-(1H-imidazol-2-yl)ethyl)-4-(5-(4-(pyrrolidin-1-yl)phenyl)pyridin-3-yl)-1H-pyrrolo[2,3-b]pyridine-2-carboxamide] | 100 to 1000 nM | 10 to 100 nM |
| O=C(NCc1nc2ccccc2o1)c1cc2c(-c3cncc(-c4ccc(N5CCCC5=O)cc4)c3)ccnc2[nH]1 [Example 245, N-(benzo[d]oxazol-2-ylmethyl)-4-(5-(4-(2-oxopyrrolidin-1-yl)phenyl)pyridin-3-yl)-1H-pyrrolo[2,3-b]pyridine-2-carboxamide] | > 5000 nM | 10 to 100 nM |
| O=C(NCCc1ccccn1)c1cc2c(-c3cncc(-c4ccc(N5CCCC5=O)cc4)c3)ccnc2[nH]1 [Example 246, 4-(5-(4-(2-oxopyrrolidin-1-yl)phenyl)pyridin-3-yl)-N-(2-(pyridin-2-yl)ethyl)-1H-pyrrolo[2,3-b]pyridine-2-carboxamide] | 100 to 1000 nM | 10 to 100 nM |
| O=C(NCCc1ccncc1)c1cc2c(-c3cncc(-c4ccc(N5CCCC5=O)cc4)c3)ccnc2[nH]1 [Example 247, 4-(5-(4-(2-oxopyrrolidin-1-yl)phenyl)pyridin-3-yl)-N-(2-(pyridin-4-yl)ethyl)-1H-pyrrolo[2,3-b]pyridine-2-carboxamide] | 100 to 1000 nM | 10 to 100 nM |
| COC(=O)c1cc2c(-c3cncc(-c4ccc(N5CCCC5=O)cn4)c3)ccnc2[nH]1 [Example 248, methyl 4-(5-(2-oxopyrrolidin-1-yl)-[2,3′-bipyridin]-5′-yl)-1H-pyrrolo[2,3-b]pyridine-2-carboxylate] | 1000 to 2500 nM | 100 to 1000 nM |
| O=C(NCCc1nn[nH]n1)c1cc2c(-c3cncc(-c4ccc(N5CCCC5=O)cc4)c3)ccnc2[nH]1 [Example 251, N-(2-(2H-tetrazol-5-yl)ethyl)-4-(5-(4-(2-oxopyrrolidin-1-yl)phenyl)pyridin-3-yl)-1H-pyrrolo[2,3-b]pyridine-2-carboxamide] | 100 to 1000 nM | 10 to 100 nM |
| CN(C)C(=O)c1cnc2[nH]c(C3CC3)c(-c3cncc(-c4ccc(N5CCCC5=O)cc4)c3)c2c1 [Example 252, 2-cyclopropyl-N,N-dimethyl-3-(5-(4-(2-oxopyrrolidin-1-yl)phenyl)pyridin-3-yl)-1H-pyrrolo[2,3-b]pyridine-5-carboxamide] | 10 to 100 nM | 10 to 100 nM |
| O=C1CCCN1c1ccc(-c2cncc(-n3ccc4ncccc43)c2)cc1 [Example 253, 1-(4-(5-(1H-pyrrolo[3,2-b]pyridin-1-yl)pyridin-3-yl)phenyl)pyrrolidin-2-one] | 100 to 1000 nM | 100 to 1000 nM |
| CN(C)C(=O)c1cnc2ccn(-c3cncc(-c4ccc(N5CCCC5=O)cc4)c3)c2c1 [Example 254, N,N-dimethyl-1-(5-(4-(2-oxopyrrolidin-1-yl)phenyl)pyridin-3-yl)-1H-pyrrolo[3,2-b]pyridine-6-carboxamide] | 100 to 1000 nM | 100 to 1000 nM |
| O=C(NCCc1cnccn1)c1cc2c(-c3cncc(-c4ccc(N5CCCC5=O)cc4)c3)ccnc2[nH]1 [Example 255, 4-(5-(4-(2-oxopyrrolidin-1-yl)phenyl)pyridin-3-yl)-N-(2-(pyrazin-2-yl)ethyl)-1H-pyrrolo[2,3-b]pyridine-2-carboxamide] | 100 to 1000 nM | 10 to 100 nM |
| O=C(NCCc1nccs1)c1cc2c(-c3cncc(-c4ccc(N5CCCC5=O)cc4)c3)ccnc2[nH]1 [Example 256, 4-(5-(4-(2-oxopyrrolidin-1-yl)phenyl)pyridin-3-yl)-N-(2-(thiazol-2-yl)ethyl)-1H-pyrrolo[2,3-b]pyridine-2-carboxamide] | 100 to 1000 nM | 10 to 100 nM |
